Experimental findings from ChEMBL document CHEMBL1201862, “PubChem BioAssay data set” (2004) are described below.

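Briefly, cells in 96-well plates were exposed to five compound concentrations for 48 h, and endpoints were estimated by linear interpolation. The concentration for 50% growth inhibition is given as GI50.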 Calls of active or inactive are those of the source. No stated cut-off is given here; in the data, active = GI50 up to about 1.1 µM and inactive = higher.

Test systems include SK-MEL-5; CCRF-CEM; HCT-116; SF-295; SK-MEL-28; HCC 2998; HOP-92; A498; MCF7; A549; SNB-75; SNB-19; SK-OV-3; HCT-15; COLO 205; OVCAR-5; SK-MEL-2; OVCAR-8; DU-145; Hs-578T.
Common to all, as to test: NCI-60 cell line screen, 48 h

With `COc1cc2c3c(c1OC)C1(C=CC(=O)C=C1)CC3NCC2` (configuration not stated), the GI50 in the assay on SK-MEL-5 was > 100 µM (inactive); with CCRF-CEM, 48.8 µM (inactive); in the assay on HCT-116 it was > 100 µM (inactive); in the assay with SF-295 it was > 100 µM (inactive); with SK-MEL-28, > 100 µM (inactive); in the assay on HCC 2998 it was > 100 µM (inactive). Moreover, the GI50 in the assay with HOP-92 was > 100 µM (inactive); with A498 it was > 100 µM (inactive); with MCF7, > 100 µM (inactive); with A549, > 100 µM (inactive); in the assay with SNB-75 it was 80.5 µM (inactive); in the assay with SNB-19, > 100 µM (inactive). For the same compound, the GI50 is > 100 µM (inactive) with SK-OV-3; greater than 100 µM in the assay on HCT-15; > 100 µM (inactive) with COLO 205; > 100 µM (inactive) in the assay on OVCAR-5; > 100 µM (inactive) in the assay with SK-MEL-2; > 100 µM (inactive) with OVCAR-8. Moreover, the GI50 in the assay with DU-145 and with Hs-578T was > 100 µM (inactive) in each case.

On to `CN(CCNC(=O)c1nn(-c2ccccc2)c2c1Cc1ccccc1-2)CCNC(=O)c1nn(-c2ccccc2)c2c1Cc1ccccc1-2`, for which the GI50 with SK-MEL-5 was 1.79 µM (inactive); in the assay with CCRF-CEM, 1.77 µM (inactive); in the assay on HCT-116, 1.65 µM (inactive); in the assay on SF-295, 1.81 µM (inactive); in the assay on SK-MEL-28 it was 1.69 µM (inactive); in the assay on HCC 2998, 1.74 µM (inactive). For the same compound, the GI50 in the assay with HOP-92 is 1.53 µM (inactive); in the assay with A498, 1.84 µM (inactive); in the assay on MCF7, 1.64 µM (inactive); in the assay with A549 it was 2.06 µM (inactive); in the assay with SNB-75 it was 1.69 µM (inactive); in the assay on SNB-19 it was 2.14 µM (inactive). Further, the GI50 in the assay with SK-OV-3 was 2 µM (inactive); in the assay on HCT-15 it was 1.88 µM; in the assay on COLO 205, 1.79 µM (inactive); in the assay on OVCAR-5, 2.37 µM (inactive); in the assay on SK-MEL-2, 1.86 µM (inactive); in the assay on OVCAR-8, 1.68 µM (inactive). In addition, the GI50 was 2.59 µM (inactive) with DU-145 and 1.87 µM (inactive) in the assay with Hs-578T.

Take `COC(=O)C(Cc1ccccc1)NS(=O)(=O)c1ccc(-c2c3nc(c(-c4ccc(S(=O)(=O)NC(Cc5ccccc5)C(=O)OC)cc4)c4ccc([nH]4)c(-c4ccc(S(=O)(=O)NC(Cc5ccccc5)C(=O)OC)cc4)c4nc(c(-c5ccc(S(=O)(=O)NC(Cc6ccccc6)C(=O)OC)cc5)c5ccc2[nH]5)C=C4)C=C3)cc1` (configuration not stated): the GI50 in the assay with SK-MEL-5 is > 100 µM (inactive); with CCRF-CEM, > 100 µM (inactive); in the assay on HCT-116, > 100 µM (inactive); in the assay on SF-295, 54.6 µM (inactive); in the assay with SK-MEL-28 it was > 100 µM (inactive); in the assay with HCC 2998, > 100 µM (inactive). Further, the GI50 in the assay with HOP-92 is 31.8 µM (inactive); in the assay with A498, > 100 µM (inactive); in the assay with MCF7, > 100 µM (inactive); with A549, > 100 µM (inactive); in the assay on SNB-75, 12.5 µM (inactive); with SNB-19, 40.9 µM (inactive). Further, the GI50 in the assay with SK-OV-3 is > 100 µM (inactive); in the assay with HCT-15, greater than 100 µM; in the assay with COLO 205 it was > 100 µM (inactive); in the assay with OVCAR-5 it was > 100 µM (inactive); in the assay with SK-MEL-2 it was > 100 µM (inactive); in the assay with OVCAR-8 it was > 100 µM (inactive). Further, the figures for the GI50 with DU-145 and in the assay on Hs-578T were > 100 µM (inactive) and 17.1 µM (inactive), respectively.

As for `COc1ccc(-c2nc3c(C(=O)NCCN(C)C)cccc3c3ccccc23)cc1`, the GI50 is 1.74 µM (inactive) in the assay on SK-MEL-5; 2.77 µM (inactive) with CCRF-CEM; 3.46 µM (inactive) in the assay on HCT-116; 2.18 µM (inactive) in the assay with SF-295; 1.97 µM (inactive) with SK-MEL-28; 1.95 µM (inactive) with HCC 2998. Further, the GI50 was 3.51 µM (inactive) with HOP-92; 2.98 µM (inactive) in the assay on A498; 2.46 µM (inactive) in the assay with MCF7; 3.1 µM (inactive) in the assay on A549; 5.13 µM (inactive) in the assay on SNB-75; 3.42 µM (inactive) with SNB-19. The GI50 in the assay with HCT-15 is 2.92 µM; in the assay on COLO 205 it was 1.99 µM (inactive); with OVCAR-5 it was 3.95 µM (inactive); in the assay with SK-MEL-2, 5.21 µM (inactive); with OVCAR-8 it was 4.4 µM (inactive); with DU-145 it was 4.65 µM (inactive). Moreover, the GI50 with Hs-578T was 5.3 µM (inactive).

For `CSc1ncc2c(C#N)c3[nH]c4ccccc4n3c(=O)c2n1`, the GI50 with SK-MEL-5 was 10.6 µM (inactive); in the assay on CCRF-CEM it was 4.92 µM (inactive); in the assay with HCT-116, 13.1 µM (inactive); with SF-295 it was 9.84 µM (inactive); with HCC 2998, 10.9 µM (inactive); in the assay with HOP-92 it was 4.2 µM (inactive). Moreover, the GI50 with A498 was 9.84 µM (inactive); with MCF7, 19.7 µM (inactive); in the assay on SNB-75, 44.7 µM (inactive); in the assay with SNB-19 it was 16.9 µM (inactive); in the assay with SK-OV-3 it was 29.4 µM (inactive); in the assay on HCT-15, 9.71 µM. The GI50 is 17 µM (inactive) in the assay on COLO 205; 55.1 µM (inactive) in the assay with OVCAR-5; 8.49 µM (inactive) in the assay with SK-MEL-2; 7.85 µM (inactive) in the assay on OVCAR-8; 28.8 µM (inactive) in the assay with DU-145; 30.6 µM (inactive) in the assay on Hs-578T.

For `CN(C)c1ccc(/C=C/c2ccnc3ccccc23)cc1`, the GI50 was 75.9 µM (inactive) with SK-MEL-5; 49.5 µM (inactive) in the assay on CCRF-CEM; 39.8 µM (inactive) in the assay on HCT-116; 54.7 µM (inactive) in the assay on SF-295; 72.6 µM (inactive) with SK-MEL-28; > 100 µM (inactive) in the assay with HCC 2998. The GI50 in the assay on HOP-92 was 93.3 µM (inactive); with A498 it was > 100 µM (inactive); in the assay on MCF7 it was 90.2 µM (inactive); with A549 it was 61.4 µM (inactive); in the assay on SNB-75, 28.8 µM (inactive); in the assay with SNB-19 it was > 100 µM (inactive). Besides, the GI50 in the assay with SK-OV-3 was 54.5 µM (inactive); in the assay with HCT-15 it was 61.1 µM; in the assay with COLO 205, 28.8 µM (inactive); in the assay on OVCAR-5 it was > 100 µM (inactive); in the assay on SK-MEL-2 it was 58.2 µM (inactive); in the assay on DU-145 it was 47.9 µM (inactive). In addition, the GI50 in the assay with Hs-578T is 14.5 µM (inactive).

As to `CC(=O)OC1c2ccccc2CC2(OC(C)=O)c3ccccc3C12` (configuration not stated), the GI50 in the assay with CCRF-CEM is > 100 µM (inactive); in the assay on HCT-116 it was > 100 µM (inactive); in the assay on SF-295 it was > 100 µM (inactive); in the assay with SK-MEL-28 it was > 100 µM (inactive); with HCC 2998 it was > 100 µM (inactive); with HOP-92 it was 91 µM (inactive). In addition, the GI50 with A498 was > 100 µM (inactive); in the assay with MCF7 it was 80.4 µM (inactive); in the assay with A549, > 100 µM (inactive); in the assay with SNB-75 it was > 100 µM (inactive); in the assay on SNB-19 it was > 100 µM (inactive); in the assay with SK-OV-3, > 100 µM (inactive). Also, the GI50 in the assay with HCT-15 was greater than 100 µM; with COLO 205, > 100 µM (inactive); in the assay on OVCAR-5 it was > 100 µM (inactive); in the assay with SK-MEL-2, > 100 µM (inactive); in the assay with OVCAR-8, > 100 µM (inactive); with DU-145, > 100 µM (inactive). Moreover, in the assay on Hs-578T, the GI50 is > 100 µM (inactive).

Take `Cc1cc(S(=O)(=O)Nc2nnc3cnc4ccccc4n23)c(S)cc1Cl`: the GI50 is > 41.7 µM (inactive) in the assay on SK-MEL-5; > 100 µM (inactive) in the assay with CCRF-CEM; > 100 µM (inactive) in the assay with HCT-116; > 100 µM (inactive) in the assay on SF-295; > 100 µM (inactive) with HCC 2998; 11.1 µM (inactive) in the assay on HOP-92. The GI50 with A498 was > 100 µM (inactive); in the assay with MCF7, > 100 µM (inactive); in the assay with A549 it was > 100 µM (inactive); in the assay with SNB-75, > 54.5 µM (inactive); with SNB-19 it was 51.9 µM (inactive); with SK-OV-3, > 100 µM (inactive). In addition, the GI50 is greater than 100 µM with HCT-15; > 100 µM (inactive) with COLO 205; > 100 µM (inactive) with OVCAR-5; 97.1 µM (inactive) in the assay on SK-MEL-2; > 52.1 µM (inactive) in the assay on OVCAR-8; > 100 µM (inactive) with DU-145. In addition, in the assay with Hs-578T, the GI50 is 57.8 µM (inactive).

Take `COC(=O)c1sc(=S)sc1SCc1cccc(CSc2sc(=S)sc2C(=O)OC)c1`: the GI50 in the assay on SK-MEL-5 is > 100 µM (inactive); in the assay with CCRF-CEM, > 100 µM (inactive); in the assay with HCT-116, 90.6 µM (inactive); in the assay with SF-295, 26 µM (inactive); in the assay with SK-MEL-28, > 100 µM (inactive); in the assay on HCC 2998, > 100 µM (inactive). For the same compound, the GI50 in the assay with HOP-92 was 29.4 µM (inactive); with A498 it was 24.8 µM (inactive); in the assay with MCF7, > 100 µM (inactive); with SNB-75, 11.6 µM (inactive); in the assay on SNB-19, 26.8 µM (inactive); with SK-OV-3 it was 19.6 µM (inactive). Also, the GI50 with HCT-15 was greater than 100 µM; in the assay on COLO 205, > 100 µM (inactive); in the assay with OVCAR-5, > 100 µM (inactive); in the assay with SK-MEL-2, 38.8 µM (inactive); in the assay with OVCAR-8 it was > 100 µM (inactive); in the assay with DU-145, > 100 µM (inactive). The GI50 in the assay on Hs-578T was 36.3 µM (inactive).

As to `C[C@]12CC[C@@H]3c4cc(C=O)c(OCc5ccccc5)cc4CC[C@H]3[C@@H]1CCC2OCc1ccccc1` (some centres not stated), the GI50 in the assay on SK-MEL-5, in the assay with CCRF-CEM, with HCT-116, with SF-295, in the assay on SK-MEL-28 and in the assay on HCC 2998 was > 100 µM (inactive) each time. Moreover, the GI50 in the assay on HOP-92 was > 100 µM (inactive); in the assay with A498, > 100 µM (inactive); in the assay on MCF7, > 100 µM (inactive); with A549 it was 60.7 µM (inactive); with SNB-75 it was > 100 µM (inactive); in the assay on SK-OV-3, > 100 µM (inactive). Also, the GI50 in the assay with HCT-15 is greater than 100 µM; in the assay with COLO 205, > 100 µM (inactive); in the assay with OVCAR-5, > 100 µM (inactive); in the assay with SK-MEL-2 it was > 100 µM (inactive); with OVCAR-8 it was > 100 µM (inactive); in the assay on DU-145, > 100 µM (inactive). Further, the GI50 with Hs-578T is > 100 µM (inactive).
